Experiments:
oat, wild = assay: Test C postemergence; type: in vivo, Avena fatua; details: for Plant response rating (scale of 0 to 100 where 0 is no effect and 100 is complete control), Oat, Wild: Postemergence, 31 g ai/ha, visually evaluated after 13 to 15 days; for Oat, Wild plant response rating / Plant response rating, Oat, Wild: postemergence; for Oat, Wild plant response rating: 62 g ai/ha, scale 0 to 100
In short: (§1)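 In this greenhouse assay, seeded soil (loam plus sand) or emerged seedlings in peat-vermiculite medium were treated with formulated compound. Roughly two weeks later (13–15 days), each species was scored visually relative to controls, from 0 for no effect to 100 for complete control.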

velvetleaf = assay: Test A postemergence; type: in vivo, Abutilon theophrasti
In short: (§2)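 Scoring was visual, on a scale where 100 means complete control and 0 means no effect, comparing treated with untreated plants around 10 days post-application. Compounds in surfactant-containing non-phytotoxic solvent were sprayed onto soil preemergence or onto one- to two-leaf seedlings (2–10 cm) postemergence.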

pigweed = assay: Test C preemergence; type: in vivo, Amaranthus retroflexus; details: preemergence; for Plant response rating, Pigweed: 125 g ai/ha, scale 0 to 100, 0 = no effect, 100 = complete control
In short: as §1

wheat = assay: Test A postemergence; type: in vivo, Triticum aestivum
In short: as §2

soybean = assay: Test C preemergence; type: in vivo, Glycine max; details: preemergence; for Plant response rating, Soybean: 125 g ai/ha, scale 0 to 100, 0 = no effect, 100 = complete control
In short: as §1

barnyardgrass [1] = assay: Test A postemergence; type: in vivo, Echinochloa crus-galli
In short: as §2

johnsongrass = assay: Test C postemergence; type: in vivo, Sorghum halepense; details: for Plant response rating (scale of 0 to 100 where 0 is no effect and 100 is complete control), Johnsongrass: Postemergence, 31 g ai/ha, visually evaluated after 13 to 15 days; for Johnsongrass plant response rating / Plant response rating, Johnsongrass: postemergence; for Johnsongrass plant response rating: 62 g ai/ha, scale 0 to 100
In short: as §1

ryegrass, Italian [2] = assay: Test C preemergence; type: in vivo, Lolium multiflorum; details: preemergence; for Plant response rating, Ryegrass, Italian: 125 g ai/ha, scale 0 to 100, 0 = no effect, 100 = complete control
In short: as §1

ryegrass, Italian [3] = assay: Test C postemergence; type: in vivo, Lolium multiflorum; details: postemergence
In short: as §1

waterhemp = assay: Test C preemergence; type: in vivo, Amaranthus rudis; details: preemergence; for Plant response rating, Waterhemp: 125 g ai/ha, scale 0 to 100, 0 = no effect, 100 = complete control
In short: as §1

barnyardgrass [4] = assay: Test A preemergence; type: in vivo, Echinochloa crus-galli; details: preemergence; for Barnyardgrass plant response rating (0 to 100 scale, 0 is no effect, 100 is complete control): visual injury approx. 10 days after treatment
In short: as §2

corn = assay: Test A preemergence; type: in vivo, Zea mays; details: preemergence; for Corn plant response rating (0 to 100 scale): 125 g ai/ha, visual injury approx. 10 days after treatment; for Corn plant response rating: 500 g ai/ha, visual injury after approx. 10 days, 0 to 100 scale (0 no effect, 100 complete control)
In short: as §2

sedge, umbrella = assay: Test B flood; type: in vivo, Cyperus difformis; details: 250 g ai/ha, visual rating on 0 to 100 scale (0 no effect, 100 complete control), 13 to 15 days
In short: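 2-leaf plants; pots flooded 3 cm over soil; compound added to paddy water, depth kept constant. Greenhouse 13–15 d. Visual rating vs controls, 0–100 scale (100 = complete control); dash = no result.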

[5] = 250 g ai/ha, scale 0 to 100 (0 no effect, 100 complete control)
[6] = 125 g ai/ha, scale 0 to 100, 0 no effect, 100 complete control
[7] = Postemergence, 125 g ai/ha, 0 to 100 scale, 0 no effect, 100 complete control
[8] = Postemergence, 500 g ai/ha, 0 to 100 scale (0 no effect, 100 complete control)
[9] = 31 g ai/ha, visual rating, scale 0 to 100 (0 no effect, 100 complete control), 13 to 15 days
[10] = 62 g ai/ha, scale 0 to 100 (0 no effect, 100 complete control), 13 to 15 days
[11] = 250 g ai/ha, scale 0 to 100, 0 is no effect, 100 is complete control
[12] = postemergence, 125 g ai/ha, about 10 days, visual rating on 0 to 100 scale (0 no effect, 100 complete control)
[13] = 500 g ai/ha, visual injury after approx. 10 days, 0 to 100 scale (0 no effect, 100 complete control)

Compound	Plant response rating (scale of 0 to 100 where 0 is no effect and 100 is complete control), Oat, Wild (oat, wild)	Oat, Wild plant response rating (oat, wild)	Plant response rating, Oat, Wild (oat, wild; [5])	Plant response rating, Oat, Wild (oat, wild; [6])	Velvetleaf plant response rating (velvetleaf; [8])	Pigweed plant response rating (pigweed; [9])	Pigweed plant response rating (pigweed; [10])	Plant response rating, Pigweed (pigweed; 13 to 15 days)	Pigweed plant response rating (pigweed; [11])	Wheat plant response rating (wheat; [8])	Soybean plant response rating (soybean; [9])	Soybean plant response rating (soybean; [10])	Plant response rating, Soybean (soybean; 13 to 15 days)	Soybean plant response rating (soybean; [11])	Barnyardgrass plant response rating (barnyardgrass [1]; [8])	Barnyardgrass plant response rating (barnyardgrass [1]; [12])	Plant response rating (scale of 0 to 100 where 0 is no effect and 100 is complete control), Johnsongrass (johnsongrass)	Johnsongrass plant response rating (johnsongrass)	Plant response rating, Johnsongrass (johnsongrass; [5])	Plant response rating, Johnsongrass (johnsongrass; [6])	other results
CCCc1cc(C(=O)NC(C)C)nn1Cc1cc(C(F)(F)F)nn1C [Compound 201]	5	10	40	25	100	100	100	98	98	100	70	85	95	98	100	80	5	5	85	30	Velvetleaf plant response rating (velvetleaf; [7]): 70; Wheat plant response rating (wheat; [7]): 90; Ryegrass, Italian plant response rating (ryegrass, Italian [2]; [9]): 65; Ryegrass, Italian plant response rating (ryegrass, Italian [2]; [10]): 90; Plant response rating, Ryegrass, Italian (ryegrass, Italian [2]; 13 to 15 days): 90; Ryegrass, Italian plant response rating (ryegrass, Italian [2]; [11]): 90; Plant response rating, Ryegrass, Italian (ryegrass, Italian [3]; [5]): 15; Plant response rating, Ryegrass, Italian (ryegrass, Italian [3]; [6]): 5; Waterhemp plant response rating (waterhemp; [9]): 100; Waterhemp plant response rating (waterhemp; [10]): 100; Plant response rating, Waterhemp (waterhemp; 13 to 15 days): 98; Waterhemp plant response rating (waterhemp; [11]): 98; Barnyardgrass plant response rating (0 to 100 scale, 0 is no effect, 100 is complete control) (barnyardgrass [4]; 125 g ai/ha): 100; Barnyardgrass plant response rating (barnyardgrass [4]; [13]): 100; Corn plant response rating (0 to 100 scale) (corn): 10; Corn plant response rating (corn): 90; Plant response rating, Sedge, Umbrella (sedge, umbrella): 95
CCCc1cc(C(=O)NC(C)C)nn1Cc1ccnc(C(F)(F)F)c1 [Compound 186]	10	35	80	35	100	100	100	100	100	90	85	65	98	98	90	90	5	5	95	5	Velvetleaf plant response rating (velvetleaf; [7]): 20; Wheat plant response rating (wheat; [7]): 0; Ryegrass, Italian plant response rating (ryegrass, Italian [2]; [9]): 5; Ryegrass, Italian plant response rating (ryegrass, Italian [2]; [10]): 80; Plant response rating, Ryegrass, Italian (ryegrass, Italian [2]; 13 to 15 days): 90; Ryegrass, Italian plant response rating (ryegrass, Italian [2]; [11]): 90; Plant response rating, Ryegrass, Italian (ryegrass, Italian [3]; [5]): 60; Plant response rating, Ryegrass, Italian (ryegrass, Italian [3]; [6]): 10; Waterhemp plant response rating (waterhemp; [9]): 100; Waterhemp plant response rating (waterhemp; [10]): 100; Plant response rating, Waterhemp (waterhemp; 13 to 15 days): 100; Waterhemp plant response rating (waterhemp; [11]): 100; Barnyardgrass plant response rating (0 to 100 scale, 0 is no effect, 100 is complete control) (barnyardgrass [4]; 125 g ai/ha): 100; Barnyardgrass plant response rating (barnyardgrass [4]; [13]): 100; Corn plant response rating (0 to 100 scale) (corn): 80; Corn plant response rating (corn): 100; Plant response rating, Sedge, Umbrella (sedge, umbrella): 80
CCOc1cc(C(=O)NOC(C)C)nn1Cc1ccnc(C(F)(F)F)c1 [Compound 153]	5	10	20	5	100	20	95	100	98	100	5	10	45	80	100	100	0	5	5	0	Velvetleaf plant response rating (velvetleaf; [12]): 70; Wheat plant response rating (wheat; [12]): 90; Ryegrass, Italian plant response rating (ryegrass, Italian [2]; [9]): 5; Ryegrass, Italian plant response rating (ryegrass, Italian [2]; [10]): 50; Plant response rating, Ryegrass, Italian (ryegrass, Italian [2]; 13 to 15 days): 90; Ryegrass, Italian plant response rating (ryegrass, Italian [2]; [11]): 90; Plant response rating, Ryegrass, Italian (ryegrass, Italian [3]; [5]): 5; Plant response rating, Ryegrass, Italian (ryegrass, Italian [3]; [6]): 5; Waterhemp plant response rating (waterhemp; [9]): 60; Waterhemp plant response rating (waterhemp; [10]): 100; Plant response rating, Waterhemp (waterhemp; 13 to 15 days): 100; Waterhemp plant response rating (waterhemp; [11]): 100; Barnyardgrass plant response rating (barnyardgrass [4]; 125 g ai/ha, visual injury, 0 to 100 scale, approx. 10 days): 90; Barnyardgrass plant response rating (barnyardgrass [4]; [13]): 100; Corn plant response rating (0 to 100 scale) (corn): 90; Corn plant response rating (corn): 100; Plant response rating, Sedge, Umbrella (sedge, umbrella): 95

From US20150105252A1, “SUBSTITUTED PYRAZOLES AS HERBICIDES” (E I DU PONT DE NEMOURS AND COMPANY, priority 2013, published 2015)
